Data from US6211168A, “Methods for preparation and use of 1α,24 (S)-dihydroxy vitamin D2” (Bone Care International, Inc, priority 1995, dated 2001).
Like-named read-outs stand apart in the source and are kept apart here. One block for each compound: values may come before it.

Legend:
vitamin D receptor (VDR) = molecular target: T1, vitamin D receptor (VDR) (Homo sapiens, UniProt P11473); assay: vitamin D-dependent transcriptional activation: growth hormone production in transfected COS-1 cells; type: cell-based; settings: inducer molar concentration 10^-9; total minus ethanol control
T1 construct: RXR partner endogenous (monkey)
T1 sequence (P11473 1-427): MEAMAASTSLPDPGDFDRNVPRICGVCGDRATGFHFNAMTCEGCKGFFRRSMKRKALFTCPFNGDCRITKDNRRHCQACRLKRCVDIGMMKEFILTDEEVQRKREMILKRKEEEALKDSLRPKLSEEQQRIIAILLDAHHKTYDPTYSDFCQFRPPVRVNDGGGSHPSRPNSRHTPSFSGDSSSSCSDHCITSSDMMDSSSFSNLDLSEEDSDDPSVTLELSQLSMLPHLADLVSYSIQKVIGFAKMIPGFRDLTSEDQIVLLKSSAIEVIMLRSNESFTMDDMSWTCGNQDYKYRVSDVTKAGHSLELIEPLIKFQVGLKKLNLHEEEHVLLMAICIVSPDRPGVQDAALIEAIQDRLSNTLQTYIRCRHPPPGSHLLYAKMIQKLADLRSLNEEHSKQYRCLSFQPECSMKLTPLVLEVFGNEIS
Protocol: The biological activity in vitro of chemically synthesized 1α,24(S)-(OH)2 D2 and 1α,24(R)-(OH)2 D2 was measured using a vitamin D-dependent transcriptional activation model system in which a vitamin D receptor (VDR)-expressing plasmid pSG5-hVDR1/3and a plasmid p(CT4)^4 TKGH containing a Growth Hormone (GH)-gene, under the control of a vitamin D-responsive element (VDRE) were co-transfected into Green monkey kidney, COS-1 cells. DNA's for these two vectors were supplied by Dr. Mark Haussler, Department of Biochemistry, University of Arizona, Tucson, Ariz.
Tranfected cells were incubated with vitamin D metabolites and growth hormone production was measured.

[1] = tested on: 1,25-(OH)2 D3 receptor site; settings: Ishizuka et al., Steroids 1981, 1982; cited from earlier work
[2] = tested on: human osteoporotic patients; settings: humans; cited from earlier work
[3] = blood levels of metabolites in osteoporotic women administered 1α-OH-D2; type: in vivo, human; settings: one day after a single 2 μg dose of 1α-OH-D2, women
Protocol: An increase in the production of 1α,24(S)-(OH)2 D2 relative to 1α,25-(OH)2 D2 has also been observed by the present inventors in human females who received 1α-OH-D2 as part of an investigation of that drug for the treatment of osteoporosis. Following either a single dose of 2 μg of 1α-OH-D2 or daily doses of 8 μg/day for one week, blood was collected and analyzed for the metabolites 1α,24(S)-(OH)2 D2 and 1α,25-(OH)2 D2. Lipid was extracted from the blood, and the metabolites were purified by HPLC using standard methods and quantified with the radioreceptor assay produced by Incstar (Stillwater, Minn.). One day after a single 2 μg dose, the level of 1α,24(S)-(OH)2 D2 was undetectable with the 1α,25-(OH)2 D2 level being approximately 11 pg/ml. In contrast, one day following the last dose of 8 μg, the level of 1α,24(S)-(OH)2 D2 averaged 9 pg/ml with the 1α,25-(OH)2 D2 level averaging 30 pg/ml.

[4] = type: in vivo, rat
Protocol: Vitamin D2 or 24-OH-D2 was administered (either oral or intraperitoneal supplementation) to vitamin D-deficient rats. Lipid extracts of the plasma were prepared and the metabolites purified by the method of Horst et al. (Horst, A. L., Koszewski, N. J. and Reinhardt, T. A., Biochem., 29:578-82 (1990)) described below for synthesyzing standard biological 1α,24-(OH)2 D2.
Standard biological 1α,24-(OH)2 D2 was synthesized in vitro from 24-OH-D2 by incubating 10 μg of 24-OH-D2 in flask containing 5 ml of 20% kidney homogenates made from vitamin D-deficient chicks. The product of this reaction was isolated by HPLC and identified by mass spectrometry.

Net vitamin D-inducible GH-production (vitamin D receptor (VDR)): 36 ng/mL
Compound: C=C1/C(=C\C=C2/CCC[C@]3(C)[C@@H]([C@H](C)/C=C/[C@](C)(O)C(C)C)CC[C@@H]23)C[C@@H](O)C[C@@H]1O [1α,24(R)-(OH)2 D2, 1α,24(R)-dihydroxy vitamin D2]

Compound: C=C1/C(=C\C=C2/CCC[C@]3(C)[C@@H]([C@H](C)CC[C@@H](O)C(C)C)CC[C@@H]23)C[C@@H](O)C[C@@H]1O [1α,24(R)-(OH)2 D3, 1α,24(R)-dihydroxyvitamin D3]
binding to the 1,25-(OH)2 D3 receptor site relative to 1,25-(OH)2 D3 [1]: more tightly than does 1,25-(OH)2 D3 itself

Compound: C=C1/C(=C\C=C2/CCC[C@]3(C)[C@@H]([C@H](C)CCCC(C)C)CC[C@@H]23)C[C@@H](O)C[C@@H]1O [1α-(OH) D3, 1α-hydroxy vitamin D3]
tolerability of dosage levels of 2.0 μg/day or greater [2]: not safely obtained

blood level of metabolite 1α,24(S)-(OH)2 D2 [3]: undetectable
Compound: C=C1/C(=C\C=C2/CCC[C@]3(C)[C@@H]([C@H](C)/C=C/[C@H](C)C(C)C)CC[C@@H]23)C[C@@H](O)C[C@@H]1O [1α-OH-D2, 1α-hydroxy vitamin D2]

Compound: C=C1CC[C@H](O)C/C1=C/C=C1\CCC[C@]2(C)[C@@H]([C@H](C)/C=C/C(C)(O)C(C)C)CC[C@@H]12 (stereo partly shown) [24-OH-D2, 24-hydroxyvitamin D2]
plasma metabolite 1α,24-(OH)2 D2 found after administration ([4]; rat, in vivo): co-migrated on HPLC with the standard 1α,24-(OH)2 D2

Compound: C=C1CC[C@H](O)C/C1=C/C=C1\CCC[C@]2(C)[C@@H]([C@H](C)/C=C/[C@H](C)C(C)C)CC[C@@H]12 [vitamin D2]
plasma metabolite 1α,24-(OH)2 D2 found after administration ([4]; vitamin D-deficient rats, oral or intraperitoneal, HPLC of plasma lipid extracts): co-migrated on HPLC with the standard 1α,24-(OH)2 D2

Compound: C=C1CC[C@H](O)C/C1=C/C=C1\CCC[C@]2(C)[C@@H]([C@H](C)CCCC(C)C)CC[C@@H]12 [vitamin D3]
24-hydroxylated metabolite in plasma after administration ([4]; comparable vitamin D-deficient rats): no detectable 24-OH-D3
